From patent US10246453B2, “Benzenesulfonamide compounds and their use as therapeutic agents” (Xenon Pharmaceuticals Inc., priority 2016, dated 2019) come the findings set out here.

In data set [1] the target is T1, NaV1.6 (Homo sapiens (Human), UniProt Q9UQD0). The experiment in a line: Sodium Influx Assay (Flux), NaV1.6. The note with it: read-out: Flux NaV1.6 IC50; Trex HEK293 cells, ANG2 dye; arithmetic mean.
Data set [2] has as its target T2, NaV1.1 (Homo sapiens (Human), UniProt P35498). The experiment in a line: Sodium Influx Assay (Flux), NaV1.1. The class given is cell-based. Particulars: Trex HEK293 cells, ANG2 dye; arithmetic mean.
For another data set, the target named is NaV1.5 (Homo sapiens (Human), UniProt Q14524). In words: Sodium Influx Assay (Flux), NaV1.5. The note with it: read-out: Flux NaV1.5 IC50; Trex HEK293 cells, ANG2 dye; arithmetic mean.
Data set [3] addresses T2, NaV1.1. In words: Electrophysiological Assay (EP), patch voltage clamp, NaV1.1. Particulars: HEK-293 cells, whole-cell patch clamp, inactivated state; arithmetic mean. In kind it is cell-based. Here is the method: Sodium currents were measured using the patch clamp technique in the whole-cell configuration using either a PatchXpress automated voltage clamp or manually using an Axopatch 200B (Axon Instruments) or Model 2400 (A-M systems) amplifier.
In some studies, the external sodium was reduced by equimolar replacement with choline. […] All recordings were performed at ambient temperature in a bath chamber with a volume of 150 μL. Control sodium currents were measured in 0.5% DMSO. Controls and representative compounds of the invention were applied to the recording chamber through a 4-pinch or 8-pinch valve bath perfusion system manufactured by ALA Scientific Instruments.
Series resistance compensation was applied (60-80%). […] All statistics in this study are given as mean±SD.
The membrane potential was maintained at a voltage where inactivation of the channel is complete. The voltage is then stepped back to a very negative (Vhold=−150 mV) voltage for 20 ms and then a test pulse is applied to quantify the compound block. […] The percent decrease in sodium current following wash-on of compound was taken as the percent block of sodium channels.

Data set [4] deals with T1, NaV1.6. In words: Electrophysiological Assay (EP), patch voltage clamp, NaV1.6. In kind it is cell-based. Particulars: HEK-293 cells, whole-cell patch clamp, inactivated state; arithmetic mean. (In patch-clamp work, channel activity is measured electrically.)

SMILES strings stand for the structures. Structures can show the parent of a compound that is named as a salt.

T1 sequence (Q9UQD0 whole entry): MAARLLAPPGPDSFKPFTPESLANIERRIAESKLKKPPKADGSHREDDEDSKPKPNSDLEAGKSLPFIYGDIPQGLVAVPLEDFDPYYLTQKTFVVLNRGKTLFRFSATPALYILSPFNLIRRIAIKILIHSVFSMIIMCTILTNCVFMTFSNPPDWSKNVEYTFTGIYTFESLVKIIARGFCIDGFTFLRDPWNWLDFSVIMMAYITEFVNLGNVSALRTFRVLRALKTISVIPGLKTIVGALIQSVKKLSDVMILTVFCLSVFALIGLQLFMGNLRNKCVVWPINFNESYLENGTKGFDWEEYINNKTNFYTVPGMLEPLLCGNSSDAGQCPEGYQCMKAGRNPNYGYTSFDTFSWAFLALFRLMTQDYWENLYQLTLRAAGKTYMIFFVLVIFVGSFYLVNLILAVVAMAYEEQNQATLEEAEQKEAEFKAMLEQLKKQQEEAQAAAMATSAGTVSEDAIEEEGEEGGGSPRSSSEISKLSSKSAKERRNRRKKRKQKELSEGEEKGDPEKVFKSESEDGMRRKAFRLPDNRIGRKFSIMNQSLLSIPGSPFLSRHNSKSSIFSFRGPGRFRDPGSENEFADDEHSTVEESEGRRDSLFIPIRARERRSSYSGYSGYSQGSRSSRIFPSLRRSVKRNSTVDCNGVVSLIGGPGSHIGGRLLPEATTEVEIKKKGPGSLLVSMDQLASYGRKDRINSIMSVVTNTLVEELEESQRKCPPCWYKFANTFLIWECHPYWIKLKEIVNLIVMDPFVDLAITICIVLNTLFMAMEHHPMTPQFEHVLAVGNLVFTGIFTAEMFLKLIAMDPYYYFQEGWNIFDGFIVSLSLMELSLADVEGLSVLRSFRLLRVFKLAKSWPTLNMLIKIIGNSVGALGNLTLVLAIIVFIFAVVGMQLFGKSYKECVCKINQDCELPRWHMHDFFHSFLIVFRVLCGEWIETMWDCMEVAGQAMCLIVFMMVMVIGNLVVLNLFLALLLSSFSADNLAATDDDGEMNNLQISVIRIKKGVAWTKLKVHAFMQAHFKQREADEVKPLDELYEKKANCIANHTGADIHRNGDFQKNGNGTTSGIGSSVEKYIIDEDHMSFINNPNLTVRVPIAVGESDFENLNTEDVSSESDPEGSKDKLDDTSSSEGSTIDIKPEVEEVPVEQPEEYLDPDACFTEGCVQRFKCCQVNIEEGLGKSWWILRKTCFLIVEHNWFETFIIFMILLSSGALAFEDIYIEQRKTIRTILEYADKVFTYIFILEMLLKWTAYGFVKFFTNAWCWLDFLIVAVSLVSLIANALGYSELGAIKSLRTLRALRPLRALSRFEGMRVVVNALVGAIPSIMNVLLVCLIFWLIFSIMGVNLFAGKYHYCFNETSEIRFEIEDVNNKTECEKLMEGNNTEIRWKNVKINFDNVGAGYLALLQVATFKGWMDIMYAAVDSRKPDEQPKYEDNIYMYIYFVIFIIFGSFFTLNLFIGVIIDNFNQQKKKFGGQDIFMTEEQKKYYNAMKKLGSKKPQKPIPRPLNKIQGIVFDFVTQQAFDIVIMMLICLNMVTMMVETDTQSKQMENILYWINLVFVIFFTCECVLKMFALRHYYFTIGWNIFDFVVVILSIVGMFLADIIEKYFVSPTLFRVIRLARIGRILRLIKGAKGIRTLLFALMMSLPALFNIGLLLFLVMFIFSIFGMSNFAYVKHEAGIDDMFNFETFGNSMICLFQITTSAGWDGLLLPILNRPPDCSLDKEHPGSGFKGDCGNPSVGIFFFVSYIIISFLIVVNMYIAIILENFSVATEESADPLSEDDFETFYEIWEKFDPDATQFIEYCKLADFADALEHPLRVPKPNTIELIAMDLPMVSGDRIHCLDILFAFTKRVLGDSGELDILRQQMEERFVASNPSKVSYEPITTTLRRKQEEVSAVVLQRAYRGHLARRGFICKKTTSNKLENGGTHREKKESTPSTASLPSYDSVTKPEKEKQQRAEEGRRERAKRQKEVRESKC
Sequence of NaV1.5 (Q14524 other isoform, or with tags, fused parts or gaps): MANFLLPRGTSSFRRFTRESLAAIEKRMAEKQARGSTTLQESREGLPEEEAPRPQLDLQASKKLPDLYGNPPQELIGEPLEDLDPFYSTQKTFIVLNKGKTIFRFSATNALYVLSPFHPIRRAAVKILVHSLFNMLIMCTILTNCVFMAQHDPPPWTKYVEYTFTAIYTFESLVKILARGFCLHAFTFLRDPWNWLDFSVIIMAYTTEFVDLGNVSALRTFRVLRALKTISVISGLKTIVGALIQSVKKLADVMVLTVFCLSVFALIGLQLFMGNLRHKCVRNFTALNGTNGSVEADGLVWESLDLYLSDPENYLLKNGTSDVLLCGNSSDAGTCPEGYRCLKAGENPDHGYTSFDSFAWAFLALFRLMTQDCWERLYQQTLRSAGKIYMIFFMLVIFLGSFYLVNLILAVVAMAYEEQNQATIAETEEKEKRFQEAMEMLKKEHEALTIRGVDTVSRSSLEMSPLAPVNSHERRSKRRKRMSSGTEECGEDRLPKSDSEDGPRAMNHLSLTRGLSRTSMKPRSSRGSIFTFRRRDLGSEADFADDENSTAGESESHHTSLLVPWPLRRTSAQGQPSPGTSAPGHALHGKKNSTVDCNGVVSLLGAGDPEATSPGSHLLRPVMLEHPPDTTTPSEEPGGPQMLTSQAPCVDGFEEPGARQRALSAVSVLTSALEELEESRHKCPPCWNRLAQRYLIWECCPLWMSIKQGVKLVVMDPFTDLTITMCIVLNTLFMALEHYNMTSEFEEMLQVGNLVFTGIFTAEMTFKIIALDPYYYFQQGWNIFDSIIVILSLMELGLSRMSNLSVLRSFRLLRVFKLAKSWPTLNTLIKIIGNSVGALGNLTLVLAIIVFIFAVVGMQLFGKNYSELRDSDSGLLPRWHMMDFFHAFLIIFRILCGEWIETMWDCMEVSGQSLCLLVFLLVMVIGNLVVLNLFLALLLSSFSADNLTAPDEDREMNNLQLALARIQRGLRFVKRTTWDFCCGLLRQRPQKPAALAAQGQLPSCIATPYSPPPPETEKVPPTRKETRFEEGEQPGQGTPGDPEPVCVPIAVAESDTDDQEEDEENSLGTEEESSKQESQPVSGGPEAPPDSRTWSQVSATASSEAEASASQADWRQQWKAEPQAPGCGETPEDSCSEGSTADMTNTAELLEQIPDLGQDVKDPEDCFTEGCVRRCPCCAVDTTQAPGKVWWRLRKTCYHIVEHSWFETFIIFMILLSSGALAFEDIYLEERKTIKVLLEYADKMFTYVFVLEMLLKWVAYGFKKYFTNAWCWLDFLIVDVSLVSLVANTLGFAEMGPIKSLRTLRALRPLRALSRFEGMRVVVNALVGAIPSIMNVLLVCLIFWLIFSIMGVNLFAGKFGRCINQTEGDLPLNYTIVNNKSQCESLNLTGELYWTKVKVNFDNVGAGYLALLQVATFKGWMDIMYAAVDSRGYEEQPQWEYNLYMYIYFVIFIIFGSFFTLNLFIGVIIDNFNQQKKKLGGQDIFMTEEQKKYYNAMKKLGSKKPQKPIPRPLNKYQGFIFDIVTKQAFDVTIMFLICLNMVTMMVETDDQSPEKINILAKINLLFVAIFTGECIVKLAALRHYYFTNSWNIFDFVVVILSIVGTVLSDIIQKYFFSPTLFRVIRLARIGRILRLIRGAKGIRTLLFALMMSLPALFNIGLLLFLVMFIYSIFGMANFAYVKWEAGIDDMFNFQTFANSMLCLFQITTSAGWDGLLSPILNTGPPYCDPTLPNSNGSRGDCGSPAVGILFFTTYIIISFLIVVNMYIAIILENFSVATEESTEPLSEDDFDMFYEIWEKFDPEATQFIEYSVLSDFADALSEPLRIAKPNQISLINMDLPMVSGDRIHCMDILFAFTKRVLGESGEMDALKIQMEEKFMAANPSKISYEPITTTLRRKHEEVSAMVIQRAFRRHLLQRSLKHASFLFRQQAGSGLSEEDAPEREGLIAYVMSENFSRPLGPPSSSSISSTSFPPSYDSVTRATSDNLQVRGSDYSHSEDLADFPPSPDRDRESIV

What is called IC50 is the concentration at which inhibition is half-maximal. Regarding `COc1ccccc1CN1CC[C@H](N(C)c2cc(F)c(S(=O)(=O)Nc3cscn3)cc2Cl)C1` [Example 206, (S)-5-chloro-2-fluoro-4-((1-(2-methoxybenzyl)pyrrolidin-3-yl)(methyl)amino)-N-(thiazol-4-yl)benzenesulfonamide], the IC50 at NaV1.6 [1] is 0.532 µM; against NaV1.1 [2], 22.5 µM; on NaV1.5, greater than 30 µM; against NaV1.1 [3], greater than 10 µM; against NaV1.6 [4], 0.462 µM.

For `C[C@@H](c1ccccc1)N1CCC(Oc2ccc(S(=O)(=O)Nc3ncns3)cc2Cl)CC1` [Example 221, (S)-3-chloro-4-((1-(1-phenylethyl)piperidin-4-yl)oxy)-N-(1,2,4-thiadiazol-5-yl)benzenesulfonamide 2,2,2-trifluoroacetate], the IC50 on NaV1.6 [1] was 0.127 µM; against NaV1.1 [2], 10.8 µM; on NaV1.5, greater than 30 µM; on NaV1.1 [3] it was greater than 10 µM; on NaV1.6 [4], 0.098 µM.

Consider `C[C@H](c1ccccc1)N1CCC(Oc2cc(F)c(S(=O)(=O)Nc3cscn3)cc2Cl)CC1` [Example 222, (R)-5-chloro-2-fluoro-4-((1-(1-phenylethyl)piperidin-4-yl)oxy)-N-(thiazol-4-yl)benzenesulfonamide 2,2,2-trifluoroacetate], for which the IC50 at NaV1.6 [1] is 0.959 µM; against NaV1.1 [2], 27.9 µM; at NaV1.5, 19.4 µM; against NaV1.1 [3], greater than 10 µM; on NaV1.6 [4], 0.278 µM.

On to `C[C@@]1(Nc2ccc(S(=O)(=O)Nc3cscn3)cc2Cl)CCN(Cc2ccccc2)C1` [Example 225, (R)-4-((1-benzyl-3-methylpyrrolidin-3-yl)amino)-3-chloro-N-(thiazol-4-yl)benzenesulfonamide formate], for which the 50% inhibitory concentration (IC50) on NaV1.6 [1] was 3.9 µM; against NaV1.1 [2], 5.45 µM; on NaV1.5 it was 5.55 µM; at NaV1.1 [3], greater than 10 µM; on NaV1.6 [4], 5.31 µM.

For the compound `C[C@]1(Nc2ccc(S(=O)(=O)Nc3cscn3)cc2Cl)CCN(Cc2ccccc2)C1` [Example 226, (S)-4-((1-benzyl-3-methylpyrrolidin-3-yl)amino)-3-chloro-N-(thiazol-4-yl)benzenesulfonamide formate], the IC50 on NaV1.6 [1] was 2.43 µM; against NaV1.1 [2], 11.5 µM; on NaV1.5, 9.04 µM; on NaV1.1 [3], greater than 10 µM; at NaV1.6 [4], 3.08 µM.

For `CC[C@@H](c1ccccc1)N1CC[C@H](N(C)c2cc(F)c(S(=O)(=O)Nc3cscn3)cc2Cl)C1` [Example 242, 5-chloro-2-fluoro-4-(methyl((S)-1-((S)-1-phenylpropyl)pyrrolidin-3-yl)amino)-N-(thiazol-4-yl)benzenesulfonamide], the half-inhibitory concentration (IC50) on NaV1.6 [1] is 0.65 µM; against NaV1.1 [2], 5.38 µM; on NaV1.5 it was 9.96 µM; on NaV1.1 [3] it was greater than 10 µM; at NaV1.6 [4] it was 0.668 µM.

Regarding `CN(c1cc(F)c(S(=O)(=O)Nc2cscn2)cc1Cl)[C@H]1CCN([C@@H]2CCc3ccccc32)C1` [Example 246, 5-chloro-4-(((S)-1-((R)-2,3-dihydro-1H-inden-1-yl)pyrrolidin-3-yl)(methyl)amino)-2-fluoro-N-(thiazol-4-yl)benzenesulfonamide 2,2,2-trifluoroacetate], the IC50 at NaV1.6 [1] is 0.629 µM; at NaV1.1 [2], 8.51 µM; at NaV1.5, 18.7 µM; against NaV1.1 [3] it was greater than 10 µM; against NaV1.6 [4], 1.03 µM.

Regarding `CN(c1cc(F)c(S(=O)(=O)Nc2cscn2)cc1Cl)[C@H]1CCN([C@H]2CCc3ccccc32)C1` [Example 249, 5-chloro-4-(((S)-1-((S)-2,3-dihydro-1H-inden-1-yl)pyrrolidin-3-yl)(methyl)amino)-2-fluoro-N-(thiazol-4-yl)benzenesulfonamide 2,2,2-trifluoroacetate], the IC50 is 0.285 µM on NaV1.6 [1]; 11.2 µM on NaV1.1 [2]; 17.4 µM on NaV1.5; greater than 10 µM against NaV1.1 [3]; 0.11 µM on NaV1.6 [4].

For the compound `C[C@H](c1ccccc1)N1CC[C@H](N(C)c2ccc(S(=O)(=O)Nc3cscn3)cc2Cl)C1` [Example 251, 3-chloro-4-(methyl((S)-1-((R)-1-phenylethyl)pyrrolidin-3-yl)amino)-N-(thiazol-4-yl)benzenesulfonamide 2,2,2-trifluoroacetate], the IC50 at NaV1.6 [1] is 1.51 µM; on NaV1.1 [2], 7.45 µM; on NaV1.5 it was 7.32 µM; against NaV1.1 [3], greater than 10 µM; on NaV1.6 [4] it was 0.412 µM.

As for `CN(c1ccc(S(=O)(=O)Nc2cscn2)cc1Cl)[C@H]1CCN(Cc2cccc(C(F)F)c2)C1` [Example 253, (S)-3-chloro-4-((1-(3-(difluoromethyl)benzyl)pyrrolidin-3-yl)(methyl)amino)-N-(thiazol-4-yl)benzenesulfonamide formate], the IC50 on NaV1.6 [1] is 0.756 µM; at NaV1.1 [2], 2.67 µM; at NaV1.5 it was 2.52 µM; on NaV1.1 [3] it was 4.76 µM; on NaV1.6 [4], 0.491 µM.

Regarding `CN(c1cc(F)c(S(=O)(=O)Nc2cscn2)cc1Cl)[C@H]1CCN(C(C)(C)c2ccccc2)C1` [Example 257, (S)-5-chloro-2-fluoro-4-(methyl(1-(2-phenylpropan-2-yl)pyrrolidin-3-yl)amino)-N-(thiazol-4-yl)benzenesulfonamide formate], the IC50 on NaV1.6 [1] was 0.701 µM; on NaV1.1 [2], 10.3 µM; on NaV1.5, 10.6 µM; against NaV1.1 [3] it was greater than 10 µM; at NaV1.6 [4], 0.17 µM.

For the compound `CN(c1cc(F)c(S(=O)(=O)Nc2cscn2)cc1Cl)[C@H]1CCN(C2(c3ccccc3)CC2)C1` [Example 259, (S)-5-chloro-2-fluoro-4-(methyl(1-(1-phenylcyclopropyl)pyrrolidin-3-yl)amino)-N-(thiazol-4-yl)benzenesulfonamide 2,2,2-trifluoroacetate], the IC50 on NaV1.6 [1] came out at 1.58 µM; at NaV1.1 [2] it was 3.77 µM; on NaV1.5 it was 5.81 µM; against NaV1.1 [3], 3.52 µM; at NaV1.6 [4], 0.44 µM.

Take `CN(c1cc(F)c(S(=O)(=O)Nc2cccc(F)n2)cc1Cl)[C@H]1CCN(C(C)(C)c2ccccc2)C1` [Example 260, (S)-5-chloro-2-fluoro-N-(6-fluoropyridin-2-yl)-4-(methyl(1-(2-phenylpropan-2-yl)pyrrolidin-3-yl)amino)benzenesulfonamide 2,2,2-trifluoroacetate]: the IC50 at NaV1.6 [1] came to 1.68 µM; against NaV1.1 [2], 7.35 µM; on NaV1.5 it was 10.1 µM; at NaV1.1 [3] it was 9.64 µM; against NaV1.6 [4] it was 0.842 µM.

On to `CCN(c1cc(F)c(S(=O)(=O)Nc2cscn2)cc1Cl)[C@H]1CCN(Cc2ccccc2)C1` [Example 263, (S)-4-((1-benzylpyrrolidin-3-yl)(ethyl)amino)-5-chloro-2-fluoro-N-(thiazol-4-yl)benzenesulfonamide], for which the IC50 on NaV1.6 [1] was 3.1 µM; against NaV1.1 [2] it was 4.44 µM; at NaV1.5, 19.1 µM; at NaV1.1 [3], greater than 10 µM; at NaV1.6 [4], 3.81 µM.

With `Cc1c(O[C@H]2CCN(Cc3ccccc3)C2)cc(F)c(S(=O)(=O)Nc2cscn2)c1F` [Example 269, (S)-4-((1-benzylpyrrolidin-3-yl)oxy)-2,6-difluoro-3-methyl-N-(thiazol-4-yl)benzenesulfonamide hydrochloride], the IC50 is 0.647 µM on NaV1.6 [1]; greater than 30 µM against NaV1.1 [2]; greater than 30 µM on NaV1.5; greater than 10 µM at NaV1.1 [3]; 0.329 µM against NaV1.6 [4].

With `Cc1c(N(C)[C@H]2CCN(Cc3ccccc3)C2)cc(F)c(S(=O)(=O)Nc2ccsn2)c1F` [Example 279, (S)-4-((1-benzylpyrrolidin-3-yl)(methyl)amino)-2,6-difluoro-N-(isothiazol-3-yl)-3-methylbenzenesulfonamide 2,2,2-trifluoroacetate], the IC50 was 0.064 µM at NaV1.6 [1]; 21.2 µM at NaV1.1 [2]; greater than 30 µM on NaV1.5; greater than 10 µM on NaV1.1 [3]; 0.011 µM against NaV1.6 [4].

For the compound `C[C@H](c1ccccc1)N1CCC(Oc2cc(F)c(S(=O)(=O)Nc3cscn3)c(F)c2Cl)CC1` [Example 283, (R)-3-chloro-2,6-difluoro-4-((1-(1-phenylethyl)piperidin-4-yl)oxy)-N-(thiazol-4-yl)benzenesulfonamide 2,2,2-trifluoroacetate formate], the IC50 at NaV1.6 [1] is 0.067 µM; on NaV1.1 [2] it was greater than 30 µM; at NaV1.5, greater than 30 µM; on NaV1.1 [3], greater than 10 µM; at NaV1.6 [4], 0.037 µM.

For `C[C@H](c1ccccc1)N1CCC(Oc2ccc(S(=O)(=O)Nc3ccncn3)cc2Cl)CC1` [Example 300, (R)-3-chloro-4-((1-(1-phenylethyl)piperidin-4-yl)oxy)-N-(pyrimidin-4-yl)benzenesulfonamide], the IC50 on NaV1.6 [1] was 1.07 µM; against NaV1.1 [2], greater than 30 µM; on NaV1.5, greater than 30 µM; on NaV1.1 [3], greater than 10 µM; at NaV1.6 [4], 0.972 µM.
